The molecules below were run against T1, human GPR40 (Homo sapiens, UniProt O14842) (assay: Inositol Phosphate Turnover (IP1) Assay 1). Conditions: HEK cells stably expressing human GPR40; 15,000 cells per well; compound transferred via pocket tip; CisBio IP-One kit.
T1 construct: expressed in transfected cells; host or cells: HEK cells stably expressing the aequorin reporter
Type: cell-based
Method: Human and mouse GPR40 stable cell-lines were generated in CHO cells stably expressing NFAT BLA (Beta-lactamase). A human GPR40 stable cell-line was generated in HEK cells stably expressing the aequorin expressing reporter. The expression plasmids were transfected using lipofectamine (Life Technologies) following manufacturer's instructions. Stable cell-lines were generated following drug selection.
Inositol Phosphate Turnover (IP1) Assay 1:
The assay was performed in 384-well format. HEK cells stably expressing human GPR40 were plated at 15,000 cells per well in growth medium (DMEM/10% fetal calf serum). Cell plates were then incubated 16 hours at 37 degrees in a 5% CO2 incubator.
Measurement of Inositol Phosphate Turnover (IP1) was performed using the CisBio IP-One kit (Part number 62IPAPEB). After the 16 hour incubation, the cells were washed with HEPES buffer and 10 ul of stimulation buffer (prepared as described in the kit) is added to each well. In a separate plate, compounds were diluted in DMSO (400-fold over the final concentration in the assay well) and 25 nl was transferred via pocket tip to the appropriate well in the assay cell plate. The plates were then incubated for 60 minutes at 37 degrees. 10 ul of detection buffer (also prepared as described in the IP-One kit) was added to each well and the plates were incubated for 60 minutes in the dark. The plates were then read in a Perkin Elmer EnVision or equivalent reader able to measure FRET. Fluorescent ratio of emission at 665 and 620 nm was then converted to IP1 concentration by back calculating from an IP1 standard curve prepared at the time of the assay.

T1 sequence (O14842 whole entry): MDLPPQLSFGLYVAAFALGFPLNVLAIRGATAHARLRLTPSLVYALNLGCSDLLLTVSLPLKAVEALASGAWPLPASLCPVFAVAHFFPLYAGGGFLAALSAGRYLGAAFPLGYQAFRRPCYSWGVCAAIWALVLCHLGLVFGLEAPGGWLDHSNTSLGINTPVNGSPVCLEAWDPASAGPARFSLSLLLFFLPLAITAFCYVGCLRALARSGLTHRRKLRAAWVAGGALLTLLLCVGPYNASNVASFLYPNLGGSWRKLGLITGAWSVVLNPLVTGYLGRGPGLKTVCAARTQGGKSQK

Compared with `COc1cc(-c2ccc(C3CCc4ccc([C@H](C5CC5)[C@H](C)C(=O)O)cc4O3)cc2CN2CCC2)c(F)cn1` (mixture of isomers) [Example 10], `COc1cc(-c2ccc(C3CCc4ccc([C@H](C5CC5)[C@H](C)C(=O)O)cc4O3)cc2CN(C)C)c(F)cn1` (stereo partly drawn) [Example 1, (2S,3R)-3-cyclopropyl-3-(2-(3-((dimethylamino)methyl)-4-(5-fluoro-2-methoxypyridin-4-yl)phenyl)chroman-7-yl)-2-methylpropanoic acid] is 22-fold lower in EC50: 193 nM for the first, 8.6 nM for the second. The second is the more potent here.

Compared with `COc1cc(-c2ccc(C3CCc4ccc([C@H](C5CC5)[C@H](C)C(=O)O)cc4O3)cc2C(C)N(C)C)c(F)cn1` (stereo partly shown) [Example 3], `COc1ccc(F)c(-c2ccc(C3CCc4ccc([C@H](C5CC5)[C@H](C)C(=O)O)cc4O3)cc2CN)c1` (mixture of isomers) [Example 2] is 170-fold higher in EC50: 18 nM for the first, 2990 nM for the second. The first is the more potent here.

From patent publication US10968193B2, “Antidiabetic bicyclic compounds” (Merck Sharp & Dohme Corp., priority 2014, dated 2021)
